Data from article PMC6331991, “Anemarrhena asphodeloides Non-Steroidal Saponin Components Alter the Pharmacokinetic Profile of Its Steroidal Saponins in Rat” (Molecules, 2015).
Where two headings read alike, the source gives them in different places.

Legend:
[1] = Pharmacokinetic study of four steroidal saponins in rat plasma after oral administration of A. asphodeloides fractions (UPLC-MS/MS); format: in vivo, Sprague-Dawley rats; details: for AUC(0-t) / Cmax / half-life / Tmax: male, Sprague-Dawley; for AUC(0-t) / Cmax / half-life / Tmax / T1/2: rat plasma, single oral dose, n = 6, mean ± S.D.; for AUC(0-t): read-out: AUC0–t; for Cmax: read-out: Cmax; for half-life: read-out: T1/2 (converted); for Tmax: read-out: Tmax; for shape of plasma concentration-time curve: after oral administration
Method: The dried A. asphodeloides were chopped into slices before using. The A. asphodeloides was immersed in water (1:10, w/v) and extracted twice by refluxing for 2 h. After filtration, the supernatant was condensed to a certain volume under reduced pressure, and 95% ethanol was added to the water extract filtrates until the concentration of ethanol was 80%. The precipitate was filtered as the macromolecular fraction (MF), the ethanol supernatant was concentrated under reduced pressure to a certain volume under vacuum and then purified by gradient elution with water, 40% ethanol and 70% ethanol from an AB-8 MARO porous resin column and then the water-eluted fraction was combined with the 40% ethanol-eluted fraction as the small molecule fraction (SF) and the 70% ethanol eluted fraction was the A. asphodeloides saponins extract (ASE). All of the residues were lyophilized and the resulting dry powder was stored at 4 °C before usage. The contents of four steroidal saponins in ASE dry powder were measured quantitatively by the external standard method using the same chromatography conditions as described above. The contents of timosaponin BII, anemarsaponin BIII, timosaponin AIII and timosaponin E1 in ASE were 429.12, 89.81, 59.13 and 41.25 mg/g, respectively.
Frozen plasma samples were unfrozen at room temperature and treated as follows: to each 200 µL plasma sample, 20 µL of IS (920 ng/mL ginsenoside Re) working solution and 600 µL of acetonitrile were added. After vortexing for 2 min and centrifugation at 13,000 rpm at 4 °C for 10 min the supernatant was transferred into a new tube and evaporated to dryness in a rotary evaporator at 39 °C and the residue was reconstituted in 100 µL of 0.1% formic acid–acetonitrile (50:50, v/v), vortexed for 2 min and centrifuged at 13,000 rpm at 4 °C for 10 min. The supernatant was transferred to an autosampler vial and an aliquot of 2 μL was injected onto the UPLC-MS/MS system for analysis.
Male Sprague-Dawley rats (250–280 g) were obtained from the Shanghai Slac Laboratory Animal Co., Ltd. (Shanghai, China). All animals were kept in an environmentally controlled breeding room (temperature: 20–25 °C, humidity: 55%–65%) for 1 week before the experiments started. Animal welfare and experimental procedures were strictly in accordance with the ethical norms of the Nanjing University of Chinese Medicine. All rats were fasted for 12 h with free access to water prior to the experiments, twenty-four rats were divided into four groups and then were given a single dose of ASE, ASE-SF, AS-MF, AS-M-SF. A 40 mg/mL ASE (the amount of MF, SF added to group AS-MF, ASE-SF, AS-M-SF were based on the proportion extracted from A. asphodeloides) aqueous solution in each group was administered orally at a dose of 400 mg/kg, which contained 171.61, 35.92, 23.62, 16.53 mg/kg of timosaponin BII, anemarsaponin BIII, timosaponin AIII, timosaponin E1, respectively.
About 400 μL blood samples were collected from venipuncture before intragastric gavage and at 0.083, 0.25, 0.5, 1, 1.5, 2, 4, 6, 8, 10, 12, 24 h after a single oral administration. The blood samples were immediately transferred to heparinized tubes and centrifuged at 3000 rpm for 10 min, and the supernatant was transferred into 2.0 mL Eppendorf tubes and stored at −80 °C prior to analysis. Blank plasma was obtained from the rat without oral administration and was used to investigate the assay development and validation.
To calculate the pharmacokinetic parameters of analytes in different group, concentrations–time dada were analyzed by DAS 3.2 software (Mathematical Pharmacology Professional Committee of China, Shanghai, China, 2011). Data were measured as the mean ± standard deviation (S.D.) with triplicate measurements. The identification of significances between different groups was executed with Student’s t-test. A p value < 0.05 was considered statistically significant.

[2] = Stability of analytes in rat plasma QC samples (auto-sampler, long-term, freeze-thaw); format: in vitro ADME; details: n = 6; for Stability, Auto-Sampler for 24 h, Mean: 4 °C; for Stability, Freeze–Thaw Cycles, Mean: three cycles −80 °C to room temperature
Method: Stock solutions were separately prepared by dissolving the four accurately weighed standard reference compounds in a mixture of 50% acetonitrile. Then, the four stock solutions were mixed and diluted with 50% acetonitrile to prepare a final mixed standard solution containing 650.00 ng/mL of timosaponin BII, 620.00 ng/mL of anemarsaponin BIII, 485.00 ng/mL of timosaponin AIII, 530.00 ng/mL of timosaponin E1. A series of working solutions were freshly prepared by diluting mixed standard solution with 50% acetonitrile to the appropriate concentration. The internal standard solution of ginsenoside Re was prepared to the concentration of 920 ng/mL in 50% acetonitrile. For the validation of the method, three concentrations of standard solution containing timosaponin BII (5.20, 52.00 and 520 ng/mL), anemarsaponin BIII (4.96, 49.60 and 496.00 ng/mL), timosaponin AIII (3.88, 38.8 and 388 ng/mL), timosaponin E1 (4.24, 42.40 and 424.00 ng/mL) were used for preparing the QC plasma samples. The stability experiments were measured by analyzing replicates (n = 6) of three QC samples during the sample storing and processing procedures. For all stability experiments, freshly prepared stability testing QC samples were evaluated by using freshly prepared standard curve for the measurement. The post-preparation stability was tested by determined of the extracted QC samples stored in the auto-sampler (4 °C) for 24 h. The freeze and thaw stability were determined after three freeze-thaw cycles (−80 °C to room temperature). Long-term stability in rat plasma stored at −80 °C was studied for a period of one month.

[3] = rat, plasma, po, 400 mg/kg, Group ASE (ASE 400 mg/kg)
[4] = rat, plasma, po, 400 mg/kg, Group ASE-MF (ASE 400 mg/kg plus macromolecular fraction)
[5] = rat, plasma, po, 400 mg/kg, Group ASE-MF
[6] = rat, plasma, po, 400 mg/kg, Group ASE-SF (ASE 400 mg/kg plus small molecule fraction)
[7] = rat, plasma, po, 400 mg/kg, Group ASE-SF
[8] = rat, plasma, po, 400 mg/kg, Group ASE-SF-MF
[9] = high concentration (388.00–520.00 ng/mL)
[10] = low concentration (3.88–5.20 ng/mL)
[11] = middle concentration (38.80–52.00 ng/mL)

SMILES | AUC(0-t) [1, 3] | Cmax [1, 3] | half-life [1, 3] | Tmax [1, 3] | Cmax [1, 4] | AUC(0-t) [1, 5] | half-life [1, 5] | Tmax [1, 5] | Cmax [1, 6] | half-life [1, 7] | Tmax [1, 7] | T1/2 ([1]; Group ASE-SF) | shape of plasma concentration-time curve ([1]; rat) | Stability, Auto-Sampler for 24 h, Mean [2, 9] | Stability, at −80 °C for 1 Month, Mean [2, 9] | Stability, Freeze–Thaw Cycles, Mean [2, 9] | Stability, Auto-Sampler for 24 h, Mean [2, 10] | Stability, at −80 °C for 1 Month, Mean [2, 10] | Stability, Freeze–Thaw Cycles, Mean [2, 10] | Stability, Auto-Sampler for 24 h, Mean [2, 11] | also measured
C[C@H]1CC[C@@]2(OC1)O[C@H]1C[C@H]3[C@@H]4CC[C@@H]5C[C@@H](O[C@@H]6O[C@H](CO)[C@H](O)[C@H](O)[C@H]6O[C@@H]6O[C@H](CO)[C@@H](O)[C@H](O)[C@H]6O)CC[C@]5(C)[C@H]4CC[C@]3(C)[C@H]1[C@@H]2C [Timosaponin AIII, timosaponin AIII] | 644 ± 59 ng·h/mL | 65.2 ± 4.16 ng/mL | 5.31 ± 3.03 h | 5.66 ± 0.81 h | 63.6 ± 3.16 ng/mL | 688 ± 46.3 ng·h/mL | 6.95 ± 6.23 h | 4.33 ± 0.81 h | 69.8 ± 2.86 ng/mL | 8.2 ± 2.74 h | 5.33 ± 1.03 h | significantly increased | single peak | 96.4% | 99.0% | 102.8% | 100.9% | 100.4% | 102.2% | 97.0% | Cmax ([1]; rat, plasma, po, 400 mg/kg, Group ASE-SF-MF (ASE 400 mg/kg plus small molecule and macromolecular fraction)): 74 ± 6.18 ng/mL; AUC(0-t) [1, 8]: 890 ± 57.2 ng·h/mL; half-life [1, 8]: 8.94 ± 1.24 h; Tmax [1, 8]: 5.66 ± 0.81 h; Stability, at −80 °C for 1 Month, Mean [2, 11]: 101.7%; Stability, Freeze–Thaw Cycles, Mean [2, 11]: 96.2%
C[C@@H](CC[C@@]1(O)O[C@H]2C[C@H]3[C@@H]4CC[C@@H]5C[C@@H](O[C@@H]6O[C@H](CO)[C@H](O)[C@H](O)[C@H]6O[C@@H]6O[C@H](CO)[C@@H](O)[C@H](O)[C@H]6O)CC[C@]5(C)[C@H]4CC[C@]3(C)[C@H]2[C@@H]1C)CO[C@@H]1O[C@H](CO)[C@@H](O)[C@H](O)[C@H]1O [Timosaponin BII, timosaponin BII] | 2040 ± 146 ng·h/mL | 271 ± 22.5 ng/mL | 3.21 ± 1.17 h | 3.75 ± 1.78 h | 287 ± 11.9 ng/mL | 1980 ± 104 ng·h/mL | 3.34 ± 1.19 h | 3.41 ± 1.43 h | 415 ± 41.8 ng/mL | 3.63 ± 1.28 h | 5 ± 1.67 h | no obvious difference | double peak | 88.3% | 95.4% | 91.4% | 95.3% | 94.7% | 98.0% | 98.1% | AUC(0-t) ([1]; 400 mg/kg, Group ASE-SF-MF): 3310 ± 575 ng·h/mL; half-life ([1]; 400 mg/kg, Group ASE-SF-MF): 5.18 ± 1.88 h; Tmax ([1]; 400 mg/kg, Group ASE-SF-MF): 3.17 ± 2.21 h; AUC(0-t) [1, 7]: 3090 ± 628 ng·h/mL; Cmax ([1]; Group ASE-SF-MF (ASE 400 mg/kg plus small molecule and macromolecular fraction)): 400 ± 39.6 ng/mL; Stability, at −80 °C for 1 Month, Mean [2, 11]: 98.2%; Stability, Freeze–Thaw Cycles, Mean [2, 11]: 95.5%
